Measured values as given in the supplement of paper PMC10307832.

Assays:
Assay in all cases: relative viability (nuclei count vs DMSO), 5 days (fraction); higher = more cells survive
A-427 = test system: A-427
Outline: (§1)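 For relative viability, nuclei counts in treated wells were divided by those in vehicle wells. Lung cancer cell lines had been pin-tool dosed in 1536-well plates the day after seeding and cultured for 5 days, then fixed and stained in one step (final 0.05% Triton X-100, 1% formaldehyde, 1 ug/ml Hoechst) and imaged at 4×. Doses were one drug alone or a fixed anchor-drug dose plus five library-drug doses (not always all listed) in √10 steps, and values are duplicate-plate medians.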

NCI-H650 = test system: NCI-H650
Outline: as §1

NCI-H1650 = test system: NCI-H1650
Outline: as §1

201T = test system: 201T
Outline: as §1

NCI-H358 = test system: NCI-H358
Outline: as §1

COR-L23 = test system: COR-L23
Outline: as §1

SK-MES-1 = test system: SK-MES-1
Outline: as §1

BEN = test system: BEN
Outline: as §1

NCI-H2342 = test system: NCI-H2342
Outline: as §1

HCC-44 = test system: HCC-44
Outline: as §1

NCI-H1975 = test system: NCI-H1975
Outline: as §1

EKVX = test system: EKVX
Outline: as §1

NCI-H1437 = test system: NCI-H1437
Outline: as §1

HCC-15 = test system: HCC-15
Outline: as §1

NCI-H441 = test system: NCI-H441
Outline: as §1

NCI-H838 = test system: NCI-H838
Outline: as §1

SW 900 = test system: SW 900
Outline: as §1

NCI-H23 = test system: NCI-H23
Outline: as §1

HARA = test system: HARA
Outline: as §1

HCC-827 = test system: HCC-827
Outline: as §1

NCI-H1666 = test system: NCI-H1666
Outline: as §1

NCI-H596 = test system: NCI-H596
Outline: as §1

COc1nc(C)cnc1NS(=O)(=O)c1cccnc1-c1ccc(-c2nnco2)cc1 [Zibotentan] + O=C(CCCCCCC(=O)Nc1ccccc1)NO [Vorinostat] (partner 1 µM)
relative viability (A-427; first compound 0.08 µM): 0.921 | relative viability (A-427; first compound 0.253 µM): 0.848 | relative viability (A-427; first compound 0.8 µM): 0.905 | relative viability (A-427; first compound 2.53 µM): 0.928 | relative viability (NCI-H650; first compound 0.08 µM): 0.53 | relative viability (NCI-H650; first compound 0.253 µM): 0.403 | relative viability (NCI-H650; first compound 0.8 µM): 0.625 | relative viability (NCI-H650; first compound 2.53 µM): 0.536 | relative viability (NCI-H1650; first compound 0.08 µM): 0.528 | relative viability (NCI-H1650; first compound 0.8 µM): 0.61 | relative viability (NCI-H1650; first compound 2.53 µM): 0.646 | relative viability (201T; first compound 0.08 µM): 0.96 | relative viability (201T; first compound 0.253 µM): 0.972 | relative viability (201T; first compound 0.8 µM): 0.952 | relative viability (201T; first compound 2.53 µM): 1 | relative viability (NCI-H358; first compound 0.08 µM): 0.563 | relative viability (NCI-H358; first compound 0.253 µM): 0.552 | relative viability (NCI-H358; first compound 2.53 µM): 0.751 | relative viability (COR-L23; first compound 0.08 µM): 0.448 | relative viability (COR-L23; first compound 0.253 µM): 0.446 | relative viability (COR-L23; first compound 0.8 µM): 0.351 | relative viability (COR-L23; first compound 2.53 µM): 0.46 | relative viability (SK-MES-1; first compound 0.08 µM): 1.18 | relative viability (SK-MES-1; first compound 0.253 µM): 0.793 | relative viability (SK-MES-1; first compound 0.8 µM): 1.09 | relative viability (SK-MES-1; first compound 2.53 µM): 1.12 | relative viability (BEN; first compound 0.08 µM): 0.571 | relative viability (BEN; first compound 0.253 µM): 0.556 | relative viability (BEN; first compound 0.8 µM): 0.568 | relative viability (BEN; first compound 2.53 µM): 0.517 | relative viability (NCI-H2342; first compound 0.08 µM): 0.832 | relative viability (NCI-H2342; first compound 0.253 µM): 0.778 | relative viability (NCI-H2342; first compound 0.8 µM): 0.778 | relative viability (NCI-H2342; first compound 2.53 µM): 0.678 | relative viability (HCC-44; first compound 0.08 µM): 1.12 | relative viability (HCC-44; first compound 0.253 µM): 1.08 | relative viability (HCC-44; first compound 0.8 µM): 1.02 | relative viability (HCC-44; first compound 2.53 µM): 1.08 | relative viability (NCI-H1975; first compound 0.08 µM): 0.758 | relative viability (NCI-H1975; first compound 0.253 µM): 0.646 | relative viability (NCI-H1975; first compound 0.8 µM): 0.632 | relative viability (NCI-H1975; first compound 2.53 µM): 0.7 | relative viability (EKVX; first compound 0.08 µM): 0.675 | relative viability (EKVX; first compound 0.253 µM): 0.818 | relative viability (EKVX; first compound 0.8 µM): 0.727 | relative viability (EKVX; first compound 2.53 µM): 0.777 | relative viability (NCI-H1437; first compound 0.08 µM): 1.05 | relative viability (NCI-H1437; first compound 0.253 µM): 0.823 | relative viability (NCI-H1437; first compound 0.8 µM): 0.834 | relative viability (NCI-H1437; first compound 2.53 µM): 0.828 | relative viability (HCC-15; first compound 0.08 µM): 0.859 | relative viability (HCC-15; first compound 0.253 µM): 0.863 | relative viability (HCC-15; first compound 0.8 µM): 0.879 | relative viability (HCC-15; first compound 2.53 µM): 0.84 | relative viability (NCI-H441; first compound 0.08 µM): 0.78 | relative viability (NCI-H441; first compound 0.253 µM): 0.721 | relative viability (NCI-H441; first compound 0.8 µM): 0.783 | relative viability (NCI-H441; first compound 2.53 µM): 0.794 | relative viability (NCI-H838; first compound 0.08 µM): 0.762 | relative viability (NCI-H838; first compound 0.253 µM): 0.716 | relative viability (NCI-H838; first compound 0.8 µM): 0.757 | relative viability (NCI-H838; first compound 2.53 µM): 0.771 | relative viability (SW 900; first compound 0.08 µM): 0.559 | relative viability (SW 900; first compound 0.253 µM): 0.404 | relative viability (SW 900; first compound 0.8 µM): 0.552 | relative viability (SW 900; first compound 2.53 µM): 0.588 | relative viability (NCI-H23; first compound 0.08 µM): 0.642 | relative viability (NCI-H23; first compound 0.253 µM): 0.497 | relative viability (NCI-H23; first compound 0.8 µM): 0.452 | relative viability (NCI-H23; first compound 2.53 µM): 0.707 | relative viability (HARA; first compound 0.08 µM): 0.638 | relative viability (HARA; first compound 0.253 µM): 0.633 | relative viability (HARA; first compound 0.8 µM): 0.569 | relative viability (HARA; first compound 2.53 µM): 0.568 | relative viability (HCC-827; first compound 0.08 µM): 0.958 | relative viability (HCC-827; first compound 0.253 µM): 0.771 | relative viability (HCC-827; first compound 0.8 µM): 0.811 | relative viability (HCC-827; first compound 2.53 µM): 0.785 | relative viability (NCI-H1666; first compound 0.08 µM): 1.17 | relative viability (NCI-H1666; first compound 0.253 µM): 0.95 | relative viability (NCI-H1666; first compound 0.8 µM): 1.04 | relative viability (NCI-H1666; first compound 2.53 µM): 1.1 | relative viability (NCI-H596; first compound 0.08 µM): 0.568 | relative viability (NCI-H596; first compound 0.253 µM): 0.533 | relative viability (NCI-H596; first compound 0.8 µM): 0.591 | relative viability (NCI-H596; first compound 2.53 µM): 0.713
